Measurements published in US8263651B2, “Use of cis-epoxyeicosatrienoic acids and inhibitors of soluble epoxide hydrolase to treat conditions mediated by PBR, CB2, and NK2 receptors” (The Regents of the University of California, priority 2006, dated 2012).

Biological target: T1, sEH (Homo sapiens, UniProt P34913)
T1 sequence (P34913 1-555): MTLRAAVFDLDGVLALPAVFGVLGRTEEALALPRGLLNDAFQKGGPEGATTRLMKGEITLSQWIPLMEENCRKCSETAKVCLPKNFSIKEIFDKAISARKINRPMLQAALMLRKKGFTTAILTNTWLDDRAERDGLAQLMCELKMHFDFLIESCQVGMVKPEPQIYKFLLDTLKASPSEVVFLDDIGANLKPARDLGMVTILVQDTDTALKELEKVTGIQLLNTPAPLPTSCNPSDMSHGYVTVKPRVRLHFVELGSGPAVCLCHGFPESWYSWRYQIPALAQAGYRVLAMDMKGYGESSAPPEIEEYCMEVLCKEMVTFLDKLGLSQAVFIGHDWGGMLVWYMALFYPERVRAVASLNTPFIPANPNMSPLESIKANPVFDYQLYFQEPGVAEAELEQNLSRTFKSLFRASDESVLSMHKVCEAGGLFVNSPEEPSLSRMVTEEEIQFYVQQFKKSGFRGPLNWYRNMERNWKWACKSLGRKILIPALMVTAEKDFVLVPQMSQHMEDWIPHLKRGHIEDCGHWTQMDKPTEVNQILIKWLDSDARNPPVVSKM
Assay: sEH inhibition, assay not specified
Assay type: biochemical
From the text: Any of a number of standard assays for determining epoxide hydrolase activity can be used to determine inhibition of sEH. For example, suitable assays are described in Gill, et al., Anal Biochem 131:273-282 (1983); and Borhan, et al., Analytical Biochemistry 231:188-200 (1995)). Suitable in vitro assays are described in Zeldin et al., J. Biol. Chem. 268:6402-6407 (1993). Suitable in vivo assays are described in Zeldin et al., Arch Biochem Biophys 330:87-96 (1996). […]
The enzyme also can be detected based on the binding of specific ligands to the catalytic site which either immobilize the enzyme or label it with a probe such as dansyl, fluoracein, luciferase, green fluorescent protein or other reagent. […] The enzyme also can be detected based on the generation of fluorescent products following the hydrolysis of the epoxide. […]

## CCCCCCCCCCCCNC(=O)NC12CC3CC(CC(C3)C1)C2 [ADU, N-Adamantyl-N′-dodecyl urea]
  activity as an inhibitor of sEH: particularly high activity
